Laboratory results taken from patent publication US8906416B2, “Xanthenedione derivatives for the treatment of pigmentation and skin ageing disorders” (Pierre Fabre Dermo-Cosmetique, priority 2010, dated 2014).

Experiments:
[1] = reference products of the interpretation scale; cited from earlier work
B16-F10 cells = test: Melanin assay test in B16-F10 cells; type: cell-based, murine; details: for IC50: Mus musculus, B16-F10, 0.1 μM α-MSH stimulated, 72 hours treatment, read-out: Results activity B16-F10 IC50 (50% melanin synthesis inhibition); for Results activity B16-F10, percentage of activity on melanin synthesis: negative value indicates an inhibition
Experimental: This involves a test of measuring the synthesis of melanin by colorimetric assay on a murine melanoma cell line: the B16-F10 line. This test enables the depigmenting power of active ingredients to be evaluated.
The B16-F10 cells are cultured in 96-well plates in DMEM medium, supplemented with FCS (foetal calf serum), and incubated 24 hours at 37° C., 5% CO2. The cells are then stimulated with 0.1 μM α-MSH (to stimulate the synthesis of melanin, the stimulation observed is around 150%) and treated 72 hours with the active ingredients to be tested. Each concentration of active ingredient is tested at least in triplicate. The total melanin followed by the intracellular melanin dissolved in the lysis buffer are then assayed by absorbance reading at 405 nm. The total proteins are assayed in the lysate and the results are expressed in mg melanin/mg proteins. The percentage of activity is calculated as follows:
[formula] A negative value indicates an inhibition, whereas a positive value indicates an induction of the synthesis of melanin. General Experimental Conditions: • Equipment: • CO2 cell incubator (Heraeus), Oven, Centrifuge (Heraeus), Laminar air flow fume hood, 96-well clear bottomed plates—Falcon, sterile cones—Treff Lab, Polylabo, Mithras LB940 (Berthold Technologies)-154/MIPA/003 Biological Equipment: • B16-F10 cell line between P10 and P20 (murine melanocytes) (ATCC, CRL-6475) • Reagents • DMEM without phenol red (GIBCOBRL, 31053-028), 200 mM Glutamax-I Supplement (GIBCOBRL, 35050-038), D-PBS (GIBCOBRL, 14190-094), Foetal calf serum (Invitrogen, 10270-098), Trypsine-EDTA (GIBCOBRL, 25300-054), NaOH (Sigma, S8045-500G), DMSO (Sigma, 471267-1L), Nle, Phe—Melanocyte Stimulating Hormone (Sigma, M-8764), Melanin (Sigma, M-0418), BCA-COPPER (SIGMA, B9643 AND C2284), BSA (SIGMA, P0914) B) Test for the Study of the Antioxidant Capacity by Chemiluminescence (Photochem Analytik Jena) Principle: […]

[2] = Antioxidant capacity by chemiluminescence (Photochem Analytik Jena); type: biochemical; details: superoxide anion trapping
Experimental: This test is used to determine the antioxidant capacity of molecules. It is a method that generates free radicals by a photochemical signal. The intensity of the oxidation is 1000 times greater than those obtained under normal conditions.
The detection is performed by chemiluminescence. It enables the evaluation of hydrosoluble and liposoluble antioxidant molecules or extracts.
The results are expressed respectively in equivalent quantity of vitamin C or Trolox (6-hydroxy-2,5,7,8-tetramethylchroman-2-carboxylic acid). The sensitivity is of the order of the nanomole.
The antioxidant activity studied in this test represents the capacity to specifically trap the superoxide anions by chemiluminescence.
The quantified results are expressed in equivalent Trolox (standard), i.e. in “μg of product for 1 μg of Trolox”. This signifies that a quantity x of sample is required to obtain an activity equivalent to the activity detected for 1 μg of standard. It is an anti-oxidant power relative to a reference, which can be determined independently of the tested concentration.
The superoxide radical: O2^o^− is generated by a photochemical reaction: L+hv(UV)+O2→L*O2→L^o^++O2^o^− • L*: luminol in the excited state L^o+: luminol radical Detection of the Signal:
Part of the superoxide anions is quenched by anti-oxidants. The remaining free radicals are quantified by chemiluminescence. L^o^++O2^o^−→N2+[…]→AP^2−+hv(luminescence) AP*^2−: aminophthalate in the excited state

Row | SMILES | IC50 (B16-F10 cells) | μg of sample for 1 μg of Trolox [2] | also measured
1 | O=C(O)CCCC[C@@H]1CCSS1 (racemic) [Lipoic acid] |  |  | Activity (scale for interpreting the results) [1]: Nil; μg sample for 1 μg of Trolox (scale for interpreting the results) [1]: Negative
2 | Cc1cc(C(C)(C)C)c(O)c(C(C)(C)C)c1 [BHT] |  |  | Activity (scale for interpreting the results) [1]: Good; μg sample for 1 μg of Trolox (scale for interpreting the results) [1]: 3.01 to 50 μg sample for 1 μg of Trolox
3 | N[C@@H](CS)C(=O)O [Cysteine] |  |  | Activity (scale for interpreting the results) [1]: Medium; μg sample for 1 μg of Trolox (scale for interpreting the results) [1]: 50.1 to 1000 μg sample for 1 μg of Trolox
4 | COc1cc(C2C3=C(CC(C)(C)CC3=O)OC3=C2C(=O)CC(C)(C)C3)ccc1O [Example 1, 9-(4-hydroxy-3-methoxyphenyl)-3,3,6,6-tetramethyl-3,4,5,6,7,9-hexahydro-1H-xanthene-1,8(2H)-dione] | 50 µM | 2.1 μg of sample for 1 μg of Trolox | 
5 | CC1(C)CC(=O)C2=C(C1)OC1=C(C(=O)CC(C)(C)C1)C2c1ccc(O)c(O)c1 [Example 2, 9-(3,4-dihydroxyphenyl)-3,3,6,6-tetramethyl-3,4,5,6,7,9-hexahydro-1H-xanthene-1,8(2H)-dione] | 20 µM | 0.03 μg of sample for 1 μg of Trolox | 
6 | COc1cc(C2C3=C(CC(C)(C)CC3=O)OC3=C2C(=O)CC(C)(C)C3)cc(OC)c1O [Example 3, 9-(4-hydroxy-3,5-dimethoxyphenyl)-3,3,6,6-tetramethyl-3,4,5,6,7,9-hexahydro-1H-xanthene-1,8(2H)-dione] | 45 µM | 0.72 μg of sample for 1 μg of Trolox | 
7 | O=C1CC(c2ccccc2)CC2=C1C(c1ccc(O)c(O)c1)C1=C(CC(c3ccccc3)CC1=O)O2 (centres unmarked) [Example 4, 9-(3,4-dihydroxyphenyl)-3,6-diphenyl-3,4,5,6,7,9-hexahydro-1H-xanthene-1,8(2H)-dione] | 7 µM | 0.001 μg of sample for 1 μg of Trolox | 
8 | CC1(C)CC(=O)C2=C(C1)OC1=C(C(=O)CC(C)(C)C1)C2c1cc(C(C)(C)C)c(O)c(C(C)(C)C)c1 [Example 5, 9-(3,5-di-tert-butyl-4-hydroxyphenyl)-3,3,6,6-tetramethyl-3,4,5,6,7,9-hexahydro-1H-xanthene-1,8(2H)-dione] | 2 µM | 50 μg of sample for 1 μg of Trolox | 
9 | COc1cc(C2C3=C(CC(c4ccccc4)CC3=O)OC3=C2C(=O)CC(c2ccccc2)C3)ccc1O (centres unmarked) [Example 6, 9-(4-hydroxy-3-methoxyphenyl)-3,6-diphenyl-3,4,5,6,7,9-hexahydro-1H-xanthene-1,8(2H)-dione] | 6 µM | 2.46 μg of sample for 1 μg of Trolox | 
10 | CCCCC/C=C\C/C=C\CCCCCCCC(=O)Oc1ccc(C2C3=C(CC(C)(C)CC3=O)OC3=C2C(=O)CC(C)(C)C3)cc1OC [Example 7, (9Z,12Z)-2-methoxy-4-(3,3,6,6-tetramethyl-1,8-dioxo-2,3,4,5,6,7,8,9-octahydro-1H-xanthen-9-yl)phenyl octadeca-9,12-dienoate] |  | 19.7 μg of sample for 1 μg of Trolox | 
11 | CC1(C)CC(=O)C2=C(C1)OC1=C(C(=O)CC(C)(C)C1)C2c1ccc(O)cc1 [Example 9, 9-(4-hydroxyphenyl)-3,3,6,6-tetramethyl-3,4,5,6,7,9-hexahydro-1H-xanthene-1,8(2H)-dione] | 37 µM | 7.39 μg of sample for 1 μg of Trolox | 
12 | Cc1cc(C2C3=C(CC(C)(C)CC3=O)OC3=C2C(=O)CC(C)(C)C3)cc(C)c1O [Example 10, 9-(4-hydroxy-3,5-dimethylphenyl)-3,3,6,6-tetramethyl-3,4,5,6,7,9-hexahydro-1H-xanthene-1,8(2H)-dione] |  | 4.10 μg of sample for 1 μg of Trolox | 
13 | COc1cc(C2C3=C(CCCC3=O)OC3=C2C(=O)CCC3)ccc1O [Example 11, 9-(4-hydroxy-3-methoxyphenyl)-3,4,5,6,7,9-hexahydro-1H-xanthene-1,8(2H)-dione] |  | 1.07 μg of sample for 1 μg of Trolox | 
14 | COc1cc(C2C3=C(CC(C(C)C)CC3=O)OC3=C2C(=O)CC(C(C)C)C3)ccc1O (centres unmarked) [Example 12, 9-(4-hydroxy-3-methoxyphenyl)-3,6-diisopropyl-3,4,5,6,7,9-hexahydro-1H-xanthene-1,8(2H)-dione] | 16 µM | 1.64 μg of sample for 1 μg of Trolox | 
15 | COc1cc(C2C3=C(CC(c4ccc(OC)c(OC)c4)CC3=O)OC3=C2C(=O)CC(c2ccc(OC)c(OC)c2)C3)ccc1O (centres unmarked) [Example 14, 3,6-bis(3,4-dimethoxyphenyl)-9-(4-hydroxy-3-methoxyphenyl)-3,4,5,6,7,9-hexahydro-1H-xanthene-1,8(2H)-dione] |  | 2.27 μg of sample for 1 μg of Trolox | 
16 | CCOc1cc(C2C3=C(CC(C)(C)CC3=O)OC3=C2C(=O)CC(C)(C)C3)ccc1O [Example 15, 9-(3-ethoxy-4-hydroxyphenyl)-3,3,6,6-tetramethyl-3,4,5,6,7,9-hexahydro-1H-xanthene-1,8(2H)-dione] | 19 µM | 1.79 μg of sample for 1 μg of Trolox | 
17 | COc1cc(C2C3=C(CC(C)(C)CC3=O)OC3=C2C(=O)CC(C)(C)C3)cc(Cl)c1O [Example 16, 9-(3-chloro-4-hydroxy-5-methoxyphenyl)-3,3,6,6-tetramethyl-3,4,5,6,7,9-hexahydro-1H-xanthene-1,8(2H)-dione] |  | 5.20 μg of sample for 1 μg of Trolox | Results activity B16-F10, percentage of activity on melanin synthesis (B16-F10 cells; 20 μM): −31% to 20 μM
18 | COc1cc(C2C3=C(CC(C)(C)CC3=O)OC3=C2C(=O)CC(C)(C)C3)cc(Br)c1O [Example 17, 9-(3-bromo-4-hydroxy-5-methoxyphenyl)-3,3,6,6-tetramethyl-3,4,5,6,7,9-hexahydro-1H-xanthene-1,8(2H)-dione] |  | 5.18 μg of sample for 1 μg of Trolox | 
19 | COc1cc(C2C3=C(CC(C)(C)CC3=O)OC3=C2C(=O)CC(C)(C)C3)cc(I)c1O [Example 18, 9-(4-hydroxy-3-iodo-5-methoxyphenyl)-3,3,6,6-tetramethyl-3,4,5,6,7,9-hexahydro-1H-xanthene-1,8(2H)-dione] |  | 4.66 μg of sample for 1 μg of Trolox | 
20 | COc1cc(C2C3=C(CC(C)(C)CC3=O)OC3=C2C(=O)CC(C)(C)C3)cc(O)c1O [Example 19, 9-(3,4-dihydroxy-5-methoxyphenyl)-3,3,6,6-tetramethyl-3,4,5,6,7,9-hexahydro-1H-xanthene-1,8(2H)-dione] |  | 0.02 μg of sample for 1 μg of Trolox | Results activity B16-F10, percentage of activity on melanin synthesis (B16-F10 cells; 10 μM): −22% to 10 μM
21 | CC(=O)Oc1ccc(C2C3=C(CC(c4ccccc4)CC3=O)OC3=C2C(=O)CC(c2ccccc2)C3)cc1OC(C)=O (centres unmarked) [Example 26, 4-(1,8-dioxo-3.6-diphenyl-2,3,4,5,6,7,8,9-octahydro-1H-xanthen-9-yl)-1,2-phenylene diacetate] |  |  | Results activity B16-F10, percentage of activity on melanin synthesis (B16-F10 cells; 20 μM): −28% to 20 μM
22 | CC(=O)Oc1ccc(C2C3=C(CC(C)(C)CC3=O)OC3=C2C(=O)CC(C)(C)C3)cc1OC(C)=O [Example 27, 4-(3,3,6,6-tetramethyl-1,8-dioxo-2,3,4,5,6,7,8,9-octahydro-1H-xanthen-9-yl)-1,2-phenylene diacetate] |  | 0.096 μg of sample for 1 μg of Trolox | 
23 | O=C1O[C@H]([C@@H](O)CO)C(O)=C1O [Vitamin C] |  |  | Activity (scale for interpreting the results) [1]: Very good; μg sample for 1 μg of Trolox (scale for interpreting the results) [1]: 0.1 to 3.0 μg sample for 1 μg of Trolox
